Peptide text beside a SMILES is read from it. * marks the point of attachment. AMC = Cc1cc(=O)oc2cc(N*)ccc12; βNA = c1ccc2cc(N*)ccc2c1; Cbz = O=C(OCc1ccccc1)*; Boc = CC(C)(C)OC(=O)*
How the values were obtained:
Format in all cases: biochemical, S. cerevisiae
[1] = molecular target: T1, KEX2 endopeptidase (Brij 58-permeabilized kex2 cells carrying pJ2B) (Saccharomyces cerevisiae, UniProt P13134); experiment: Peptidase activity in detergent-permeabilized kex2 cells carrying pJ2B; conditions: for Rate of hydrolysis, kex2 cells carrying pJ2B versus kex2 cells harboring the vector alone: detergent-permeabilized cells; for Rate of hydrolysis relative to the lysine-containing substrate (Boc-GluLysLys-MCA), times faster: detergent-permeabilized kex2 cells carrying pJ2B
T1 construct: not only includes the KEX2 gene, but also the necessary transcriptional and translational regulatory signals for expression in yeast; expressed in transfected cells; host or cells: S. cerevisiae XBH16-15A (MATalpha kex2-1) carrying YEp24-pJ2B
Procedure: (§1) Permeabilization of whole yeast cells with the non-ionic detergent Brij 58, preparation of crude membrane fractions, and measurement of protein concentration were conducted by the methods described previously (Julius et al., 1983, supra), incorporated herein by reference. To measure peptidase activity, samples of permeabilized cells or membrane material were added to a reaction mixture containing 0.1-0.5 mM fluorogenic peptide substrate (added from a 20 mM stock dissolved in DMSO) and 200 mM HEPES-Tris (pH 7.0), in a final volume of 0.4 ml. Following incubation for 30 min at 37° C., whole cells were removed by centrifugation in a microfuge (Eppendorf) and membrane material was removed by Ba(OH)2 -ZnSO4 precipitation. The amount of fluorescence formed in the supernatant solution was determined in a fluorescence spectrophotometer (Perkin-Elmer, Model MPF-44B), set either at an excitation wavelength of 335 nm and an emission wavelength of 410 nm (for measurement of β-naphthylamine) or at an excitation wavelength of 380 nm and an emission wavelength of 460 nm (for measurement of 7-amino-4-methyl-coumarin, AMC). To determine the number of moles of substrate hydrolyzed, the fluorescence yield of samples was compared to a standard curve prepared with known concentrations of authentic AMC dissolved in the same buffer.

[2] = molecular target: T2, KEX2 endopeptidase (kex2[YEp24-pJ2B] membranes) (Saccharomyces cerevisiae, UniProt P13134); experiment: Endopeptidase activity in membranes from kex2 cells carrying multicopy plasmid pJ2B (over-produced specific endopeptidase); conditions: for Relative Ratio: kex2[YEp24-pJ2B] relative to kex2[YEp24] = [1.0]; for Rate of hydrolysis, membranes from kex2 cells carrying pJ2B versus membranes from kex2 cells carrying YEp24: membrane fractions, depending on the experiment
T2 construct: not only includes the KEX2 gene, but also the necessary transcriptional and translational regulatory signals for expression in yeast; expressed in transfected cells; host or cells: S. cerevisiae XBH16-15A (MATalpha kex2-1) carrying YEp24-pJ2B
T2 sequence (P13134 114-814): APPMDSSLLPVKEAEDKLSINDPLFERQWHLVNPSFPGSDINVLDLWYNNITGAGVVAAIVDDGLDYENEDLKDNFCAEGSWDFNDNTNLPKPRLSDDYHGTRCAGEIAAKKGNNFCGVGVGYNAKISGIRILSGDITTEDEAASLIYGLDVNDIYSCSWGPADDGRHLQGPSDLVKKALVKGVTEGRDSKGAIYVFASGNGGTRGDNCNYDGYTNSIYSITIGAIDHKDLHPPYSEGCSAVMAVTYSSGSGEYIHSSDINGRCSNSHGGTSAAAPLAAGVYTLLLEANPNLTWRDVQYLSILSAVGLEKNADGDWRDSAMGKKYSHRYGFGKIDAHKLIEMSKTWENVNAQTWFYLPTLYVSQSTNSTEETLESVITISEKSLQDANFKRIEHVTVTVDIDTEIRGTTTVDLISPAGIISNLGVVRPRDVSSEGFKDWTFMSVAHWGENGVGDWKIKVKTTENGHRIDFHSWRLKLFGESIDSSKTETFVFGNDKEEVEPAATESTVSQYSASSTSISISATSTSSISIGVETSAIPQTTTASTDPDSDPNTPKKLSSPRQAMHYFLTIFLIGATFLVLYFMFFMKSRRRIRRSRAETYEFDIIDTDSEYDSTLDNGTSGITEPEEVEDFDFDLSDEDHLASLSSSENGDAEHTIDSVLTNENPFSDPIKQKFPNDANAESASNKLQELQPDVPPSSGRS
Procedure: as §1
(§2) Cells of strain XBH1615A that had been transformed with the plasmids
(§3) indicated, or that contained pJ2B in integrated form, were grown in SCUra
(§4) and membranes were prepared as described in the Experimental.
(§5) Endopeptidase activity was assayed as described in the Experimental. All
(§6) substrates tested were present at 0.1 mM.
(§7) Endopeptidase activity was assayed using Boc--GlnArgArg--MCA as the
(§8) substrate, as outlined in the Experimental. All inhibitors were added fro
a 0.1 M stock dissolved in dimethyl sulfoxide.

[3] = molecular target: T3, KEX2 endopeptidase (kex2::pJ2B membranes) (Saccharomyces cerevisiae, UniProt P13134); experiment: Endopeptidase activity in membranes from kex2 cells containing pJ2B in integrated form; conditions: for Relative Ratio: kex2::pJ2B relative to kex2[YEp24] = [1.0]
T3 construct: not only includes the KEX2 gene, but also the necessary transcriptional and translational regulatory signals for expression in yeast; expressed in transfected cells; host or cells: S. cerevisiae XBH16-15A (MATalpha kex2-1) containing pJ2B in integrated form; crude membranes
Procedure: as §1, §2, §3, §4, §5, §6, §7, §8
(§9) a 0.1 M stock dissolved in dimethyl sulfoxide. All values given were
(§10) corrected for the slight effects of addition of this solvent alone.

[4] = system: background activity in membranes of kex2[YEp24] cells; experiment: Endopeptidase activity in membranes from kex2 cells transformed with the vector YEp24 alone (background activity)
Procedure: as §1, §2, §3, §4, §5, §6, §7, §8, §9, §10

[5] = molecular target: T4, KEX2 endopeptidase (lysate of XBH16-15A carrying YEp24-pJ2B) (Saccharomyces cerevisiae, UniProt P13134); experiment: Release of endopeptidase activity from membranes by detergent treatment
T4 construct: not only includes the KEX2 gene, but also the necessary transcriptional and translational regulatory signals for expression in yeast; expressed in transfected cells; host or cells: S. cerevisiae XBH16-15A (MATalpha kex2-1) carrying YEp24-pJ2B
Procedure: as §1
Strain XBH1615A carrying the KEX2 gene on a multicopy plasmid (YEp24pJ2B)
was grown to midexponential phase in SCUra. The cells were collected by
centrifugation and a lysate was prepared as described in the Experimental
The lysate was divided into two equal portions, one of which was treated
with the nonionic detergent Triton X100 at a final concentration of 1%.
Samples of both the original lysate and the detergenttreated lysate were
saved and the remainder of each was separated into a crude membrane
fraction (P100) and a soluble fraction (S100) by centrifugation at 100,00
× g for 1 hr for endopeptidase activity using
Boc--GlnArgArg--MCA as the substrate, as given in the Experimental.

[6] = strain kex2[YEp24-pJ2B], substrate 0.1 mM, membranes
[7] = strain kex2::pJ2B, substrate 0.1 mM, membranes
[8] = strain kex2[YEp24], substrate 0.1 mM, membranes
[9] = kex2[YEp24-pJ2B], Triton X-100 1% + 5 mM TPCK, substrate Boc-GlnArgArg-MCA
[10] = kex2[YEp24-pJ2B], Triton X-100 1%, substrate Boc-GlnArgArg-MCA
[11] = kex2::pJ2B, Triton X-100 1% + 5 mM TPCK, substrate Boc-GlnArgArg-MCA
[12] = kex2::pJ2B, Triton X-100 1%, substrate Boc-GlnArgArg-MCA
[13] = kex2[YEp24], Triton X-100 1% + 5 mM TPCK, substrate Boc-GlnArgArg-MCA
[14] = kex2[YEp24], Triton X-100 1%, substrate Boc-GlnArgArg-MCA
[15] = +1% Triton X-100, P100 crude membrane fraction
[16] = +1% Triton X-100, S100 soluble fraction

Compound: C[C@H](NC(=O)OCc1ccccc1)C(=O)N[C@@H](CCCNC(=N)N)C(=O)N[C@@H](CCCNC(=N)N)C(=O)Nc1ccc2ccccc2c1 [CBZ-AlaArgArg-β-naphthylamide] (Cbz-Ala-Arg-Arg-βNA)
- Rate of hydrolysis, kex2 cells carrying pJ2B versus kex2 cells harboring the vector alone [1]: six- to ninefold greater
- Rate of hydrolysis relative to the lysine-containing substrate (Boc-GluLysLys-MCA), times faster [1]: ~30 times

Compound: Cc1cc(=O)oc2cc(NC(=O)[C@H](CCCCN)NC(=O)[C@H](CCCCN)NC(=O)[C@H](CCC(=O)O)NC(=O)OC(C)(C)C)ccc12 [Boc--GluLysLys--MCA, Boc-GluLysLys-MCA] (Boc-Glu-Lys-Lys-{AMC})
- Relative Ratio ([2]; substrate 0.1 mM): 6.3
- Rate of hydrolysis relative to Boc-GlnArgArg-MCA, times more slowly ([2]; membrane fractions of kex2 cells carrying pJ2B): about 50 times
- Rate of hydrolysis, membranes from kex2 cells carrying pJ2B versus membranes from kex2 cells carrying YEp24 [2]: about six-fold
- Specific Activity [2, 6]: 1.9 pmoles AMC formed/μg protein 10
- Rate of hydrolysis, kex2 cells carrying pJ2B versus kex2 cells harboring the vector alone [1]: six- to ninefold greater
- Relative Ratio ([3]; substrate 0.1 mM): 1.7
- Specific Activity [3, 7]: 0.5 pmoles AMC formed/μg protein 10
- Specific Activity [4, 8]: 0.3 pmoles AMC formed/μg protein 10

Compound: Triton X-100
- Relative Ratio ([2]; Triton X-100 1% + 5 mM TPCK): 127.4
- Inhibition [2, 9]: 0%
- Specific Activity [2, 9]: 152.9 pmoles/μg/10 min
- Inhibition [2, 10]: 0%
- Specific Activity [2, 10]: 155.0 pmoles/μg/10 min
- Susceptibility of the specific KEX2 endopeptidase to inhibition or inactivation ([2]; kex2 cells transformed with plasmid pJ2B, comparisons are to the background activity): slightly activated
- Relative Ratio ([3]; Triton X-100 1% + 5 mM TPCK): 9.4
- Inhibition [3, 11]: 34%
- Specific Activity [3, 11]: 11.4 pmoles/μg/10 min
- Inhibition [3, 12]: 26%
- Specific Activity [3, 12]: 12.9 pmoles/μg/10 min
- Inhibition [4, 13]: 76%
- Specific Activity [4, 13]: 1.2 pmoles/μg/10 min
- Inhibition [4, 14]: 71%
- Specific Activity [4, 14]: 1.5 pmoles/μg/10 min
- Susceptibility of the background activity to inhibition ([4]; kex2 cells transformed with YEp24 alone): greatly reduced
- % of Recovery ([5]; +1% Triton X-100, P100 + S100): 94%
- % of Total [5, 15]: 19%
- Specific Activity [5, 15]: 50.0 pmoles/μg/10 min
- % of Total [5, 16]: 75%
- Specific Activity [5, 16]: 200.0 pmoles/μg/10 min
- Specific Activity ([5]; +1% Triton X-100, whole lysate, substrate Boc-GlnArgArg-MCA): 265.0 pmoles/μg/10 min
- Solubilization of the specific KEX2 endopeptidase from membranes ([5]; Triton X-100 at final concentration of 1%): readily solubilized from membranes

Compound: Cc1cc(=O)oc2cc(NC(=O)[C@H](CCCNC(=N)N)NC(=O)[C@H](CCCNC(=N)N)NC(=O)[C@H](CCC(N)=O)NC(=O)OC(C)(C)C)ccc12 [Boc--GlnArgArg--MCA, Boc-GlnArgArg-7-amino-4-methyl-coumarin] (Boc-Gln-Arg-Arg-{AMC})
- Relative Ratio ([2]; substrate 0.1 mM): 20.2
- Rate of hydrolysis, membranes from kex2 cells carrying pJ2B versus membranes from kex2 cells carrying YEp24 [2]: 20- to 35 fold
- Specific Activity [2, 6]: 100.8 pmoles AMC formed/μg protein 10
- Rate of hydrolysis, kex2 cells carrying pJ2B versus kex2 cells harboring the vector alone [1]: six- to ninefold greater
- Rate of hydrolysis relative to the lysine-containing substrate (Boc-GluLysLys-MCA), times faster [1]: ~30 times
- Relative Ratio ([3]; substrate 0.1 mM): 3.3
- Specific Activity [3, 7]: 16.7 pmoles AMC formed/μg protein 10
- Specific Activity [4, 8]: 5.0 pmoles AMC formed/μg protein 10
